Experimental data from ChEMBL document CHEMBL1208698, “Synthesis of novel alpha-pyranochalcones and pyrazoline derivatives as Plasmodium falciparum growth inhibitors” (Bioorg Med Chem Lett, 2010).
≈ marks a conversion by molar mass, not a printed value.

What was measured:
[1] = system: Plasmodium falciparum; test: Antimalarial activity against chloroquine-sensitive Plasmodium falciparum 3D7 infected in human erythrocyte after 48 h by SYBR-Green-1 assay; type: functional, organism-based; details: 3D7, 48 h
[2] = system: Plasmodium falciparum; test: Resistance index, ratio of IC50 for Plasmodium falciparum 3D7 to IC50 for Plasmodium falciparum RKL9; type: functional
[3] = Therapeutic index, ratio of TC50 for human HeLa cells to IC50 for Plasmodium falciparum RKL9; type: cell-based; details: read-out: TI
[4] = Cytotoxicity against human HeLa cells after 24 to 48 hrs by MTT assay; type: cell-based; details: read-out: TC50 (the source's name)
[5] = system: Plasmodium falciparum; test: Antimalarial activity against chloroquine-resistant Plasmodium falciparum RKL9 infected in human erythrocyte after 48 h by SYBR-Green-1 assay; type: functional, organism-based; details: RKL9, 48 h

COc1cc(/C=C/C(=O)c2cc3ccccc3oc2=O)cc(OC)c1OC
IC50 [1]: 3.1 µg/mL (≈ 8.46 µM)
IC80 [1]: 6 µg/mL (≈ 16.4 µM)
Ratio IC50 [2]: 1.6
selectivity ratio [3]: > 50
CC50 [4]: > 100 µg/mL
IC50 [5]: 1.9 µg/mL (≈ 5.19 µM)

COc1cccc(/C=C/C(=O)c2cc3ccccc3oc2=O)c1
IC50 [1]: 11 µg/mL (≈ 35.9 µM)
IC80 [1]: 24 µg/mL (≈ 78.4 µM)
Ratio IC50 [2]: 2.2
selectivity ratio [3]: > 20
CC50 [4]: > 100 µg/mL
IC50 [5]: 4.9 µg/mL (≈ 16 µM)

COc1ccc(/C=C/C(=O)c2cc3ccccc3oc2=O)cc1OC
IC50 [1]: 26.7 µg/mL (≈ 79.4 µM)
IC80 [1]: 100 µg/mL (≈ 297 µM)

COc1ccc(/C=C/C(=O)c2cc3ccccc3oc2=O)cc1
IC50 [1]: > 100 µg/mL

COc1ccc(OC)c(/C=C/C(=O)c2cc3ccccc3oc2=O)c1
IC50 [1]: 2.7 µg/mL (≈ 8.03 µM)
IC80 [1]: 11.3 µg/mL (≈ 33.6 µM)

COc1ccc(/C=C/C(=O)c2cc3ccccc3oc2=O)c(OC)c1OC
IC50 [1]: 3.1 µg/mL (≈ 8.46 µM)
IC80 [1]: 6.2 µg/mL (≈ 16.9 µM)
Ratio IC50 [2]: 2.8
selectivity ratio [3]: 90.9
CC50 [4]: 100 µg/mL (≈ 273 µM)
IC50 [5]: 1.1 µg/mL (≈ 3 µM)

COc1cc(OC)c(OC)cc1/C=C/C(=O)c1cc2ccccc2oc1=O
IC50 [1]: > 100 µg/mL

COc1ccccc1/C=C/C(=O)c1cc2ccccc2oc1=O
IC50 [1]: > 100 µg/mL

Cc1cc(=O)oc2ccc(C(=O)/C=C/c3ccccc3Cl)c(O)c12
IC50 [1]: 20 µg/mL (≈ 58.7 µM)
IC80 [1]: 25 µg/mL (≈ 73.4 µM)
Ratio IC50 [2]: 1.5
IC50 [5]: 13.5 µg/mL (≈ 39.6 µM)

COc1ccc(OC)c(/C=C/C(=O)c2ccc3oc(=O)cc(C)c3c2O)c1
IC50 [1]: > 100 µg/mL

COc1ccc(C2CC(c3cc4ccccc4oc3=O)=NN2C(C)=O)cc1OC (stereo not given)
IC50 [1]: 10 µg/mL (≈ 25.5 µM)
IC80 [1]: 14 µg/mL (≈ 35.7 µM)
Ratio IC50 [2]: 1.1
selectivity ratio [3]: > 10
CC50 [4]: > 100 µg/mL
IC50 [5]: 9 µg/mL (≈ 22.9 µM)

COc1ccc(C2CC(c3cc4ccccc4oc3=O)=NN2c2ccccc2)cc1OC (stereo not given)
IC50 [1]: 10 µg/mL (≈ 23.4 µM)
IC80 [1]: 44 µg/mL (≈ 103 µM)
Ratio IC50 [2]: 1.3
selectivity ratio [3]: > 13
CC50 [4]: > 100 µg/mL
IC50 [5]: 7.6 µg/mL (≈ 17.8 µM)

CC(=O)N1N=C(c2ccc(O)cc2)CC1c1ccc(F)cc1 (stereo not given)
IC50 [1]: > 100 µg/mL

C[C@@H]1CC[C@H]2[C@@H](C)C(=O)O[C@@H]3O[C@@]4(C)CC[C@@H]1[C@]32OO4 [ARTEMISININ]
IC80 [1]: 0.00846 µg/mL (≈ 0.03 µM)
IC50 [5]: 0.00451 µg/mL (≈ 0.016 µM)
